According to ChEMBL document CHEMBL3039007, “Structure-based identification of OATP1B1/3 inhibitors” (Mol Pharmacol, 2013):

Key:
[1] = biological target: T1, Solute carrier organic anion transporter family member 1B1 (Homo sapiens, UniProt Q9Y6L6); conditions: chinese hamster, cho, 10 µM
T1 sequence (Q9Y6L6 whole entry): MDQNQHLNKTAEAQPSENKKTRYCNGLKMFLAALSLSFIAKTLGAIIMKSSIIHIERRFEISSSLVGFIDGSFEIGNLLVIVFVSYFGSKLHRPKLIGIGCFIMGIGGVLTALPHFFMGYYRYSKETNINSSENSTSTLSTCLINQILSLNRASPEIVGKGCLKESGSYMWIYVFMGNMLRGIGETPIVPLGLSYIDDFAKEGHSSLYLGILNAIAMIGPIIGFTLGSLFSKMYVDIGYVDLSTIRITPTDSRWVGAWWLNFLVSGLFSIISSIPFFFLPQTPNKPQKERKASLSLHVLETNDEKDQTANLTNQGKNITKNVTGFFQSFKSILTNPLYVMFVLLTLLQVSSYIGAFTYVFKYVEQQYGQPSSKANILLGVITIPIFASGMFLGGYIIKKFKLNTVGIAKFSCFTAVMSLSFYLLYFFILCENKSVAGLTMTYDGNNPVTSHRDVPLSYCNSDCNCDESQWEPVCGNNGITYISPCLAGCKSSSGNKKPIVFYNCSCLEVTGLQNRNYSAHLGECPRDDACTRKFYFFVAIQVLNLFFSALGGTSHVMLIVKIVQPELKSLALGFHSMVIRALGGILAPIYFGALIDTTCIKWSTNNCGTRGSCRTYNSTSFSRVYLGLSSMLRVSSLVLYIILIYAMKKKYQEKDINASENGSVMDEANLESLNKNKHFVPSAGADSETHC

[2] = biological target: T2, Solute carrier organic anion transporter family member 1B3 (Homo sapiens, UniProt Q9NPD5); conditions: chinese hamster, cho, 10 µM
T2 sequence (Q9NPD5 whole entry): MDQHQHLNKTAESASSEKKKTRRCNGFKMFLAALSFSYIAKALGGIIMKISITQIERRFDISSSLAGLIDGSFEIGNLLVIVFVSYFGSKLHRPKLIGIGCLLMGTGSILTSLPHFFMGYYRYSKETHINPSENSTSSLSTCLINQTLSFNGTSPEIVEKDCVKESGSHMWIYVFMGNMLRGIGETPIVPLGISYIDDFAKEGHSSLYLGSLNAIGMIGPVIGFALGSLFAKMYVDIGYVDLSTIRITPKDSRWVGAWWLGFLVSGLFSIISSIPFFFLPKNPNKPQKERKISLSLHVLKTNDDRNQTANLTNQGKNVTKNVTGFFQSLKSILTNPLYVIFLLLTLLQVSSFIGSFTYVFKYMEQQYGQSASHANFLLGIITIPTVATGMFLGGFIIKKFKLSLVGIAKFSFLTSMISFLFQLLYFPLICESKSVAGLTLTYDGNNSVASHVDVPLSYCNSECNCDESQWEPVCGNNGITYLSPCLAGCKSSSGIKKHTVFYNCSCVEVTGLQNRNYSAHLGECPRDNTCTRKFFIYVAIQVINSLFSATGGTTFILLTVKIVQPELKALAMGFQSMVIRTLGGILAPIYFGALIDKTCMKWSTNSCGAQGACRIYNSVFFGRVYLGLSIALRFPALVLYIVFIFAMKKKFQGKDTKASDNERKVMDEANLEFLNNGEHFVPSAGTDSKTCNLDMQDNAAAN

SMILES	residual activity [1]	residual activity [2]
COc1cc(OC)c(OC)cc1C=O	48.71%	59.17%
Cc1ccc(/C(=C\CN2CCCC2)c2ccccn2)cc1.Cl	83.77%	76.5%
Cl.OCCN1CCN(CCCN2c3ccccc3Sc3ccc(C(F)(F)F)cc32)CC1	153.1%	93.03%
NC(Cc1c[nH]cn1)C(=O)Nc1ccc2ccccc2c1 (stereo not drawn)	89.48%	105.8%
CN1CCN(CCCN2c3ccccc3Sc3ccc(C(F)(F)F)cc32)CC1.Cl	146.4%	70.51%
COC(=O)[C@H](Cc1ccccc1)NC(=O)[C@@H](N)CC(=O)O	85.37%	115%
COc1cccc(C=O)c1OC	107.3%	100.4%
CC(=O)Oc1cc2c(c(C)c1OC(C)=O)CC1OC13[C@@]2(C)CC[C@@]1(C)C2C[C@](C)(C(=O)O)CC[C@]2(C)CC[C@]31C (stereo partly drawn)	63.61%	37.72%
c1ccc2c(c1)cc1ccc3cccc4ccc2c1c34	74.44%	70.45%
C=N[C@@H](C(=O)N[C@@H]1C(=O)N2[C@@H]1SC(C)(C)[C@@H]2C(=O)[O-])c1ccccc1.[Na+]	110.5%	54.33%
CC(=O)Oc1cc2c(c(C)c1OC(C)=O)CC=C1[C@]2(C)CC[C@]2(C)[C@@H]3C[C@](C)(C(=O)O)CC[C@]3(C)CC[C@@]12C	47.56%	13.7%
C[C@@H]1C[C@H]2CC(=O)[C@H]3CCCN4CCCC2[C@]34C1.[O-][Cl+3]([O-])([O-])O (stereo partly drawn)	104.6%	106.7%
COC(=O)CCC(=O)O[C@H]1CC[C@@]2(C)[C@@H](CC[C@@H]3[C@@H]2C(=O)[C@@H](O)[C@]2(C)C4C(C[C@@H]32)O[C@@]2(CCC(C)CO2)[C@H]4C)C1 (stereo partly drawn)	131.1%	83.53%
C[C@H](C(=O)O)[C@H]1CC[C@H]2[C@@H]3CC=C4C[C@@H](O)CC[C@]4(C)[C@H]3CC[C@]12C	71.16%	83.58%
CC(C)CCC[C@@H](C)[C@H]1CC[C@H]2[C@@H]3CC[C@H]4CCCC[C@]4(C)[C@H]3CC[C@]12C	88.28%	103.3%
CC(C)CCC[C@@H](C)[C@H]1CC[C@H]2C3=CC[C@H]4C[C@@H](O)CC[C@]4(C)[C@H]3CC[C@]12C	85.16%	99.24%
COC(=O)C[C@H]1C(C)(C)[C@]2(Cl)O[C@@]34CC2C(=O)[C@]1(C)C3CC[C@]1(C)C4=CC(=O)O[C@H]1c1ccoc1 (stereo partly drawn)	68.86%	88.12%
CC[C@H](/C=C/[C@@H](C)[C@H]1CC[C@H]2[C@@H]3CCC4=CC(=O)CC[C@]4(C)[C@H]3CC[C@]12C)C(C)C	89.99%	88.84%
O=C1CC[C@]23/C=C/C(=O)NCCCCNCCCNC(=O)/C=C\c4ccc(c2c4)O[C@@H]3C1	70.42%	100.4%
CC(=O)O[C@H]1CC[C@]2(C)C3=C(CC[C@H]2C1(C)C)[C@]1(C)CC[C@H]([C@H](C)CCC=C(C)C)[C@@]1(C)CC3	54.67%	93.79%
CC(C)c1c(O)ccc2c1CCC1[C@@](C)(C(=O)O)CCC[C@]21C (stereo partly drawn)	61.16%	80.85%
C=C[C@@](C)(O)CC[C@H]1C(=C)C[C@H](O)[C@H]2C(C)(C)CCC[C@]12C	48.6%	78.26%

SMILES	residual activity [1]	residual activity [2]
CC[C@H](C)[C@@H](NC)C(=O)O	122.8%	105.9%
O[C@@H]1[C@@H](O)[C@@H]2OC[C@@H](O2)[C@H]1O	105.1%	106%
O=c1cccc2n1C[C@@H]1C[C@H]2CN2CCCC[C@H]12.[O-][Cl+3]([O-])([O-])O	88.32%	98.01%
CC(=O)OCC(=O)[C@@]1(O)CC[C@H]2[C@@H]3CC[C@H]4CC(OC(C)=O)CC[C@]4(C)[C@H]3C(=O)C[C@@]21C (stereo partly drawn)	99.36%	97.61%
CC(=O)O[C@@H]1CC(=O)[C@]2(C)[C@H]3CC[C@@]4(C)[C@H](c5ccoc5)OC(=O)[C@H]5O[C@]54[C@]3(C)C(=O)C[C@H]2C1(C)C	80.54%	97.89%
CCC(C)C(=O)O[C@@H]1C[C@]2(C)[C@H](c3ccoc3)OC(=O)CC23OC2(C)OC34[C@H](OC(=O)C(C)C)[C@@]3(O)[C@@H](OC(=O)[C@]5(C)O[C@H]5C)[C@]5(C)C[C@@]3(O)[C@@](C)([C@H]5CC(=O)OC)C14O2 (stereo partly drawn)	-0.3887%	0.6163%
C[C@@H]([C@H]1OC(C)(C)[C@@H](O)[C@H]1O)[C@@H]1CC[C@]2(C)C3=CC[C@H]4C(C)(C)C(=O)CC[C@]4(C)[C@H]3CC[C@@]12C	77.68%	98.76%
CC(=O)O[C@H]1CC[C@]2(C)[C@H]3CC[C@@H]4[C@@H]5CC(C)(C)CC[C@]5(C(=O)O)CC[C@@]4(C)[C@]3(C)CC[C@H]2C1(C)C	112.3%	103.7%
O=C1CCC[C@@H]2[C@H]3C[C@@H](CN12)[C@@H]1CCCCN1C3.[O-][Cl+3]([O-])([O-])O	115.5%	104.5%
CCCCCCCCCCCC[C@@H](C(=O)O)[C@H](C)C(=O)O	76.63%	61.85%
CC(=O)O[C@H]1CC[C@@]2(C)[C@@H](CC[C@H]3[C@@H]4CC=C(C(C)=O)[C@@]4(C)C(=O)C[C@@H]32)C1	81.91%	85.5%
C[C@]12CC[C@H](Cl)C[C@@H]1CC[C@@H]1[C@@H]2CC[C@]2(C)C(=O)CC[C@@H]12	67.79%	70.61%
CC(=O)OCC1=C(C(=O)[O-])N2C(=O)[C@@H](NC(=O)CCC[C@@H](N)C(=O)O)[C@H]2SC1.[Na+]	89.78%	103.2%
CC(=O)O[C@@H]1C[C@H]2C(C)(C)CCC(=O)[C@]2(C)[C@H]2CC[C@@]3(C)[C@H](c4ccoc4)OC(=O)[C@H]4O[C@]43[C@@]21C	67%	105.3%
COC(=O)[C@H]1OC(=O)[C@H]2O[C@]23[C@]2(C)[C@H](CC[C@]13C)[C@]1(C)CCC(=O)C(C)(C)[C@@H]1C[C@H]2OC(C)=O	32.74%	97.12%
CC(=O)N[C@H]1[C@H]([C@@H](O)[C@H](O)CO)O[C@@](O)(C(=O)O)C[C@@H]1O	93.14%	91.96%
CN[C@H]1C[C@@H](N)[C@H](O)[C@@H](O[C@@H]2O[C@H](CO)[C@H](O)[C@H]3O[C@@]4(O[C@H]23)O[C@H]([C@H](N)CO)[C@H](O)[C@H](O)[C@H]4O)[C@@H]1O	103.7%	91.81%
COc1ccc(/C=C/C(=O)Nc2ccccc2C(=O)O)cc1OC	55.59%	71.26%
CC(=O)c1cc2c(cc1O)OC(C)(C)C=C2	84.54%	88.13%
CC(=O)Nc1ccc(S(=O)(=O)Nc2ccc([N+](=O)[O-])cc2)cc1	61.58%	88.89%
CO[C@H]1C=C[C@@]23c4cc5c(cc4CN(C[C@@H]2O)[C@H]3C1)OCO5	94.19%	100.9196%
Nc1nc(N)c2nc(-c3ccccc3)c(N)nc2n1	78.63%	69.61%
